According to paper PMC5733478, “A Non-imaging High Throughput Approach to Chemical Library Screening at the Unmodified Adenosine-A3 Receptor in Living Cells” (Frontiers in Pharmacology, 2017):
Counter-ions that a name gives are not always drawn. Like-named read-outs stand apart in the source and are kept apart here.

Target: T1, human A3AR (Homo sapiens, UniProt P0DMS8)
T1 construct: expressed in transfected cells
T1 sequence (P0DMS8 1-318): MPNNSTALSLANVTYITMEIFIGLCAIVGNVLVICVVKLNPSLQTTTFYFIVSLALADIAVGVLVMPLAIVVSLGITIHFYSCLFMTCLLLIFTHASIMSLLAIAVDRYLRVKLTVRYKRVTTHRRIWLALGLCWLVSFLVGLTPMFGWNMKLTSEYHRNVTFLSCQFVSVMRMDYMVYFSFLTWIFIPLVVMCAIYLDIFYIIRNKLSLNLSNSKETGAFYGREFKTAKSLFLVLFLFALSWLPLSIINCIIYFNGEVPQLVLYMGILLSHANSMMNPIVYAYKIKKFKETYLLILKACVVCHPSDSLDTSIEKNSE
Assay: LOPAC library primary screen: single concentration (10 μM) inhibition of 25 nM CA200645 binding, PHERAstar FS

[1] = compounds tested at 10 µM, % of control wells (1% DMSO and 25 nM CA200645), whole live cells expressing the A3AR, mean ± SD, three experiments in duplicate
[2] = % of control wells (1% DMSO and 25 nM CA200645), compounds at 10 µM, whole live cells expressing the A3AR, mean ± SD, three experiments in duplicate

Compound | % 25 nM CA200645 binding | further results
COCCOc1cc2nc[nH]c(=O)c2cc1OCCOC [CP-380736] | 88.0 ± 4.4% | –
CN1CCc2cccc(Cl)c2CC1 [SKF 86466] | 103.0 ± 12.5% | –
CC1(C(=O)O)C2CCC(O2)C1(C)C(=O)O (stereo not shown) [Cantharidic Acid] | 97.5 ± 13.0% | –
CC(C)c1cccc(C(C)C)c1O [Propofol] | 96.0 ± 3.0% | –
CC(=O)N1CCN(c2ccc(OCC3COC(Cn4ccnc4)(c4ccc(Cl)cc4Cl)O3)cc2)CC1 (stereo not shown) [Ketoconazole] | 98.9 ± 9.0% | –
Nc1ccn([C@@H]2O[C@H](CO)[C@@H](O)C2(F)F)c(=O)n1 [Gemcitabine hydrochloride] | 106.0 ± 4.9% | –
O=C1CC[C@@]2(O)[C@H]3Cc4ccc(O)c5c4[C@@]2(CCN3CC2CC2)[C@H]1O5 [Naltrexone hydrochloride] | – | % 25 nM CA200645 binding [1]: 102.6 ± 6.5%
COC(=O)[C@@H]1[C@H]2C[C@H]3c4[nH]c5ccccc5c4CCN3C[C@@H]2CC[C@@H]1O [Yohimbine hydrochloride] | 100.6 ± 0.5% | –
Cl.NCC(O)C1CCCCCCC1 (stereo not shown) | 94.5 ± 6.6% | –
Nc1c(S(=O)(=O)O)cc(Nc2ccc(Nc3nc(Cl)nc(Nc4cccc(S(=O)(=O)O)c4)n3)c(S(=O)(=O)O)c2)c2c1C(=O)c1ccccc1C2=O [Reactive Blue 2] | 24.5 ± 2.7% | –
O=C(c1ccc(Cl)cc1)N1CCN(c2ccc([N+](=O)[O-])c3ncccc23)CC1 [CPNQ] | 83.4 ± 4.6% | –
COC[C@H]1OC(=O)c2coc3c2[C@@]1(C)C1=C(C3=O)[C@@H]2CCC(=O)[C@@]2(C)C[C@H]1OC(C)=O [Wortmannin from Penicillium funiculosum] | 82.6 ± 17.7% | –
O=C(O)CCc1ccc(NCc2cccc(Oc3ccccc3)c2)cc1 [GW9508] | 94.4 ± 0.8% | –
O=C(O)/C=C\C(=O)O.O=C(O)/C=C\C(=O)O.c1cc(CN2CCCCC2)cc(OCCCNc2nc3ccccc3s2)c1 [SKF 95282 dimaleate] | 120.1 ± 40.0% | –
Oc1ccc(Cn2cc[nH]c2=S)cc1 [1-(4-Hydroxybenzyl)imidazole-2-thiol] | 87.3 ± 21.6% | –
Cc1cccc(C)c1OCC(C)N.Cl (stereo not shown) [Mexiletene hydrochloride] | 99.4 ± 6.9% | –
COc1ccc(Cc2nccc3cc(OC)c(OC)cc23)cc1OC [Papaverine hydrochloride] | 86.6 ± 22.0% | –
COC(=O)C1=C(C)NC(C)=C([N+](=O)[O-])C1c1ccccc1C(F)(F)F (racemic) [(±)-Bay K 8644] | 95.3 ± 3.4% | –
C=CCc1ccccc1OCC(O)CNC1(C)CCC(C(C)(C)NC(=O)CBr)CC1 (stereo not shown) [Bromoacetyl alprenolol menthane] | 102.8 ± 4.8% | –
O=Nc1ccc2oc(=O)ccc2c1 [6-Nitroso-1,2-benzopyrone] | 107.9 ± 12.7% | –
Cn1cc(C(=O)OCC2CCN(CCNS(C)(=O)=O)CC2)c2ccccc21 [GR 113808] | 92.8 ± 8.0% | –

Compound | % 25 nM CA200645 binding | further results
O=C(O)CP(=O)(O)O [Phosphonoacetic acid] | 103.4 ± 12.3% | –
CCCCCCCCCCCCCCCCCCOCC(COP(=O)([O-])OCC[N+](C)(C)C)OC (stereo not shown) [ET-18-OCH3] | 80.6 ± 4.5% | –
Cc1nc2ccccn2c(=O)c1CCN1CCC(C(=O)c2ccc(F)cc2)CC1 [Pirenperone] | – | % 25 nM CA200645 binding [2]: 88.6 ± 5.4%
(±)-Ibuprofen | 91.4 ± 12.3% | –
C[C@H](O)C(=O)C1=Nc2c(nc(N)[nH]c2=O)NC1 [Sepiapterin] | 97.4 ± 20.7% | –
CCOC(=O)C1=C(O)C(=O)N(Cc2ccccc2)C1 [EBPC] | 98.2 ± 13.5% | –
CN[C@H](CC(=O)O)C(=O)O [N-Methyl-D-aspartic acid] | 109.5 ± 4.3% | –
CC(C)C(=O)Nc1ccc([N+](=O)[O-])c(C(F)(F)F)c1 [Flutamide] | 84.4 ± 23.0% | –
Cl.N[C@@H](CCC(=O)O)C(=O)O [L-Glutamic acid hydrochloride] | 113.0 ± 19.3% | –
Cc1ccccc1N1C(=O)c2cc(S(N)(=O)=O)c(Cl)cc2NC1C (stereo not shown) [Metolazone] | 90.5 ± 39.1% | –
O=c1c(-c2ccc(O)cc2)coc2cc(O)ccc12 [Daidzein] | 88.9 ± 6.0% | –
COc1ccc2c(c1OC)C(=O)OC2C1c2cc3c(cc2CCN1C)OCO3 (single isomer, unassigned; (+)) [(+)-Hydrastine] | 95.9 ± 10.1% | –
O=C1NCN(c2ccccc2)C12CCN(CC1COc3ccccc3O1)CC2 (stereo not shown) [Spiroxatrine] | – | % 25 nM CA200645 binding [1]: 112.7 ± 3.0%
C[N+](C)(C)CC#CCOC(=O)Nc1cccc(Cl)c1.[Cl-] [McN-A-343] | 93.8 ± 10.4% | –
C[N+](C)(C)CC#CCN1CCCC1=O [Oxotremorine methiodide] | 101.3 ± 18.6% | –
CCn1cnc2c(Nc3cccc(Cl)c3)nc(N[C@@H]3CCCC[C@@H]3N)nc21.Cl [CGP-74514A hydrochloride] | 94.1 ± 9.9% | –
O=C1NCN(c2ccccc2)C12CCN(CCCC(c1ccc(F)cc1)c1ccc(F)cc1)CC2 [Fluspirilene] | 94.5 ± 10.0% | –
CC(O)(CS(=O)(=O)c1ccc(F)cc1)C(=O)Nc1ccc(C#N)c(C(F)(F)F)c1 (stereo not shown) [Bicalutamide (CDX)] | 96.9 ± 5.3% | –
CC(C)(C)c1o[nH]c(=O)c1CC(N)C(=O)O (stereo not shown) [ATPA] | 96.6 ± 6.2% | –
C[C@H]1C[C@H]2[C@@H]3CCC4=CC(=O)C=C[C@]4(C)[C@@]3(Cl)[C@@H](O)C[C@]2(C)[C@@]1(O)C(=O)CO [Beclomethasone] | 93.7 ± 1.6% | –
O=C(O)[C@@H]1CCN1 [L-azetidine-2-carboxylic acid] | 100.7 ± 4.1% | –

Compound | % 25 nM CA200645 binding | further results
Br.CN1CCc2cc(O)cc3c2[C@H]1Cc1ccc(O)c(O)c1-3 | 83.0 ± 14.1% | –
Clc1cccc(Cl)c1N=C1NCCN1 [Clonidine hydrochloride] | 101.9 ± 9.8% | –
CN(Cc1cnc2nc(N)nc(N)c2n1)c1ccc(C(=O)N[C@@H](CCC(=O)O)C(=O)O)cc1.O [Methotrexate hydrate] | 100.1 ± 8.9% | –
CO[C@@]1(NC(=O)CSCC#N)C(=O)N2C(C(=O)O)=C(CSc3nnnn3C)CS[C@@H]21 [Cefmetazole sodium] | 84.6 ± 22.3% | –
Cl.c1ccc2nc(C3=NCCN3)ccc2c1 [BU224 hydrochloride] | 100.8 ± 7.2% | –
Nc1nc(OCc2ccccc2)c2nc[nH]c2n1 [O6-benzylguanine] | 65.0 ± 6.0% | –
NC(=O)CC[C@H](N)C(=O)O [L-Glutamine] | – | % 25 nM CA200645 binding [2]: 99.9 ± 14.1%
NS(=O)(=O)c1cc(C(=O)O)c(NCc2ccco2)cc1Cl [Furosemide] | 95.7 ± 5.9% | –
CC(=O)[C@]1(O)Cc2c(O)c3c(c(O)c2[C@@H](O[C@H]2C[C@H](N)[C@H](O)[C@H](C)O2)C1)C(=O)c1ccccc1C3=O [Idarubicin] | 95.1 ± 1.7% | –
FC(F)(F)c1ccccc1-n1ccnc1 [1-[2-(Trifluoromethyl)phenyl]imidazole] | 101.2 ± 9.4% | –
O=c1onc2cnc3ccccc3n12 [ODQ] | 93.0 ± 5.7% | –
CCCn1c(=O)c2[nH]c(-c3ccc(S(=O)(=O)O)cc3)nc2n(CCC)c1=O [1,3-dipropyl-8-p-sulfophenylxanthine, reference compound] | 42.3 ± 4.8% | % Total CA200645 binding: 42.3 ± 4.8%; hit in LOPAC primary screen (inhibited the binding of CA200645 by >40%): identified
COC1(C2=NCCN2)COc2ccccc2O1.Cl (stereo not shown) [RX 821002 hydrochloride] | 101.0 ± 17.5% | –
CCc1cncnc1N1CCN(Cc2nc3ccc(C(F)(F)F)cc3[nH]2)CC1 [PF-4708671] | 99.2 ± 13.5% | –
CN1CCN(C2Cc3ccccc3Sc3ccc(Cl)cc32)CC1.O=C(O)/C=C\C(=O)O (racemic) [(±)-Octoclothepin maleate] | – | % 25 nM CA200645 binding (% of control wells (1% DMSO and 25 nM CA200645), compounds at 10 µM, […], mean ± SD, three experiments in duplicate): 83.2 ± 25.2%
CNCCC(Oc1ccccc1OC)c1ccccc1 (stereo not shown) [Nisoxetine hydrochloride] | 97.3 ± 6.5% | –
CC(C)NCC(O)COc1cccc2ccccc12.Cl (racemic) [(±)-Propranolol hydrochloride] | 106.0 ± 10.5% | –
N[C@@H](Cc1ccc(O)c(I)c1)C(=O)O [3-Iodo-L-tyrosine] | 96.8 ± 8.8% | –
C[C@H](Cc1ccc2c(c1)OC(C(=O)[O-])(C(=O)[O-])O2)NC[C@H](O)c1cccc(Cl)c1.[Na+].[Na+] [CL 316,243] | 38.7 ± 18.1% | –
O=c1n(CCCN2CCN(c3cccc(Cl)c3)CC2)nc2ccccn12 [Trazodone hydrochloride] | 104.7 ± 11.3% | –
